Assay results as given in paper PMC11984388, “A brain-accessible peptide modulates stroke inflammatory response and neurotoxicity by targeting BDNF-receptor TrkB-T1 specific interactome” (Theranostics, 2025).
Residues, ends and D or L forms follow the SMILES beside them. *: point of attachment. Biotin = O=C1N[C@H]2[C@H](CS[C@H]2CCCCC(=O)*)N1

Test system: neurons of primary cortical cultures
Assay: Neuronal viability (MTT) under NMDA excitotoxicity
Type: cell-based, rat
Method: Cultures were prepared from cerebral cortex of 18-day-old Wistar rat embryos, both genders indistinctly included. Unless otherwise indicated, glial growth was inhibited after 7 days in vitro (DIVs), experimental treatments taking place after 12 DIVs. These cultures present a high percentage of neurons, combined with glial cells, mostly astrocytes. To induce excitotoxicity, cultures were incubated with NMDA (100 µM) and its co-agonist glycine (10 µM), herein denoted simply as NMDA, which induce a strong excitotoxic response in mature neurons but have no effect on astrocyte viability,[47]. When indicated, cultures were preincubated for 30 min with indicated concentrations of Tat-derived CPPs before NMDA treatment, peptides being kept in the medium along treatment. Total cell or neuronal viability assessment was established by the thiazolyl blue formazan (MTT) reduction assay. Further details are provided as Supplementary material. […]
skull for 10 min. Br ain injury encompas se s damage to vas cular endothelium, platelet activation, and subs equent microvascula r thrombotic occlus ion of the irradiate d region. The ar eas underneath this ste reotaxic position that result irradiate d ar e the prima ry motor cortex and the prima ry soma tos ens ory cortex (hindlimb and forelimb). Once completed surgery, the incision was sutured, and mice were allowed to recover.
For neuroprote ction experiments, a single dose (3 nmol/g) of peptides TMyc or TT1Ct (> 95% purity; GenScript), solubilized as 2.5 mM solutions in 0.9% NaC l, we retro-orbita lly injected 1 h af ter damage initiation. In order to improve their plas ma sta bility, thes e peptides ar e N- and C-ter modifie d by, respec tive ly, ace tyl and amide groups. Mi c e were not subje cted to other procedures before isc hemia and were naive to drug or peptide treatment. Animals were randomly allocated to the experimental groups and the resea rc hers doing the experiments were blind respec t to treatment. There was not a previous es tima tion of sa mple si z e and experiments were independently car r ied out as indicated. Twenty-four hours af ter damage induction, animals completed the beam walking test and were subs equently sa cri f i ced by cervical disloca tion to meas ure the infarc t volume, as indicated below. Be fore that, brains were se ctioned into se ri al 1-mm-thick coronal sl i ce s using a mouse brain matrix (Stoe lting, Wood Dale, IL, USA), and se ctions were completely sta ine d with 2% TTC at room temperature to visua liz e the cortical infarc ts . For immunohistochemis try, animals were deeply anes thetized 5 or 24 h af ter brain damage and intra cardially perfus ed with cold PBS and 4% paraformalde hyde in PBS as indicated below.
Primary cultures of rat cor tic al neurons to study in vitro excitotoxicity The diss ected cerebral cortices of Wis ta r rat embryos (E18), both genders included, were mechanic ally diss ociated in culture medium (Minimum Esse ntia l Me dium, ME M, Life Technologies) follow ed by se eding of the cell sus pens ion at a dens ity of 1.1x10^6 cells /ml, prepared in the sa m e medium supple me nted with 22.2 mM glucos e, 0.1 mM glutamax, 5% foetal bovine se rum (FBS), 5% donor horse se rum (HS), 100 U/ml penicillin and 100 µg/ml streptomycin. Be fore se eding, the plates were treated overnight at 37°C with 100 µg/ml poly-L-lysine and 4 µg/ml laminin. The cells were incubated at 37°C in an atmosphe re of 5% CO2 and 95% humidity. Generally, glial growth was inhibited af ter 7 days in vitro (DIV s) by adding 10 µM 5 cytos ine β-D-arabinofuranos ide (AraC) and experimental treatments took place af ter 12 DIVs. Excitotoxicity was induced by incubation with NM DA (100 µM) and glycine (10 µM) for the indicated times. As indicated, cultures were preincubated with Tat-derived CP P s before […]
Mi c e had to walk through a narrow beam (1 m × 1 cm × 1 cm) placed 50 cm above the tabletop, going from an aversive stimulus (60-W light bulb) to a black goal box with nes ting material. […]

[1] = peptide 25 µM preincubated 30 min, NMDA 100 µM + glycine 10 µM for 2 h, relative to untreated cells (100%), mean ± SEM, n = 8 (Fig 1E)
[2] = peptide 25 µM preincubated 30 min, NMDA 100 µM + glycine 10 µM for 4 h, relative to untreated cells (100%), mean ± SEM, n = 8 (Fig 1E)

| Molecule | Relative neuronal viability (%) [1] [%] | Relative neuronal viability (%) [2] [%] | Relative neuronal viability (%) (2 h, 15 µM) | Relative neuronal viability (%) (4 h, 15 µM) | Neuronal viability (CPPs 0: peptide and NMDA (100 µM) at the same time, viability after 4 h of excitotoxicity, relative to untreated cells (100%), mean, n = 4-8 (Fig S4)) [%] | Neuronal viability (CPPs 30: peptide added 30' post-NMDA (100 µM), viability after 4 h of excitotoxicity, relative to untreated cells (100%), mean, n = 4-8 (Fig S4)) [%] | Neuronal viability (CPPs 60: peptide added 60' post-NMDA (100 µM), viability after 4 h of excitotoxicity, relative to untreated cells (100%), mean, n = 4-8 (Fig S4)) [%] | Neuronal viability (dose-response experiment (Fig 3B): peptide 15 µM preincubated 30 min, NMDA 2 h, mean ± SEM, n = 8) [%] |
| --- | --- | --- | --- | --- | --- | --- | --- | --- |
| CC[C@H](C)[C@H](NC(=O)[C@H](CC(C)C)NC(=O)[C@H](CCCCN)NC(=O)[C@H](CCC(N)=O)NC(=O)[C@H](CCC(=O)O)NC(=O)[C@H](CCC(=O)O)NC(=O)[C@H](C)NC(=O)[C@H](CCCNC(=N)N)NC(=O)[C@H](CCCNC(=N)N)NC(=O)[C@H](CCCNC(=N)N)NC(=O)[C@H](CCC(N)=O)NC(=O)[C@H](CCCNC(=N)N)NC(=O)[C@H](CCCNC(=N)N)NC(=O)[C@H](CCCCN)NC(=O)[C@H](CCCCN)NC(=O)[C@H](CCCNC(=N)N)NC(=O)CNC(=O)[C@H](Cc1ccc(O)cc1)NC(=O)CCCC[C@@H]1SC[C@@H]2NC(=O)N[C@@H]21)C(=O)N[C@@H](CO)C(=O)N[C@@H](CCC(=O)O)C(=O)N[C@@H](CCC(=O)O)C(=O)N[C@@H](CC(=O)O)C(=O)N[C@@H](CC(C)C)C(=O)N[C@@H](CC(C)C)C(=O)N[C@@H](CCCNC(=N)N)C(N)=O [Bio-TMyc, reference compound] (Biotin-YGRKKRRQRRRAEEQKLISEEDLLR-NH2) | 24 ± 3 | 16 ± 3 | – | – | – | – | – | – |
| CC[C@H](C)[C@H](NC(=O)[C@H](CCCCN)NC(=O)[C@H](Cc1c[nH]cn1)NC(=O)[C@H](Cc1ccccc1)NC(=O)[C@H](CC(C)C)NC(=O)[C@@H](NC(=O)[C@H](Cc1ccccc1)NC(=O)[C@H](CCCNC(=N)N)NC(=O)[C@H](CCCNC(=N)N)NC(=O)[C@H](CCCNC(=N)N)NC(=O)[C@H](CCC(N)=O)NC(=O)[C@H](CCCNC(=N)N)NC(=O)[C@H](CCCNC(=N)N)NC(=O)[C@H](CCCCN)NC(=O)[C@H](CCCCN)NC(=O)[C@H](CCCNC(=N)N)NC(=O)CNC(=O)[C@H](Cc1ccc(O)cc1)NC(=O)CCCC[C@@H]1SC[C@@H]2NC(=O)N[C@@H]21)C(C)C)C(=O)N1CCC[C@H]1C(=O)N[C@@H](CC(C)C)C(=O)N[C@@H](CC(=O)O)C(=O)NCC(N)=O [Bio-sTT1Ct] (Biotin-YGRKKRRQRRRFVLFHKIPLDG-NH2) | 50 ± 5 | 32 ± 3 | 45 | 39 | – | – | – | – |
| Ac-YGRKKRRQRRRPPFVLFHKIPLDG-NH2 [TT1Ct] | – | – | – | – | 59 | 31 | 37 | 46 ± 7 |
